One series can be described thus: half-life in rat. Conditions: in vivo, iv, 1 mg/kg.
A further series is described as follows: half-life in dog. The conditions noted are these: in vivo, iv.
A short description of series [1]: half-life in humans (clinical trials). It counts as in vivo, Human. Conditions: for half-life: plasma, 1 mg. From the text: The unexpectedly long half-life in humans has several advantages. It allows for once a day dosing. The drug will also have a very small dynamic plasma range over the course of a day (about 15-20%). Thus, if a patient misses a daily dose, the plasma level and the consequent brain level will not be altered by a great degree. This means that the beneficial effects of the drug will be less dependent upon careful adherence to a specific dosing scheme. Third, long half-life and slow elimination also mean that the final dose will be lower than expected. This readily observed by looking at the Cmax values on Day 1 versus Day 21. The Cmax values on Day 21 are about 3.6-4.2 times higher than the Day 1 values. This ratio will translate into a dose that is 3.6-4.2 times lower than would normally be expected due to this favorable accumulation.

Series [2] can be described thus: free fraction of drug in human plasma.
Protocol: (§1) The free drug concentration in plasma ([free drug]plasma) is determined by measuring the total drug concentration in the plasma ([total drug]plasma) and the free fraction of the drug, i.e., the fraction of the drug that is not bound to plasma protein (fuplasma):[free drug]plasma=[total drug]plasmaX fuplasma. The total plasma drug concentration and the fraction that binds to plasma protein can both be measured using techniques known to those of skill in the art.
Series [3] is described as follows: free fraction of drug in dog plasma.
Protocol: as §1
Series [4] can be described thus: maximum plasma concentration in human SAD/MAD clinical trials. It counts as in vivo. Conditions: human, once a day dosing. The method, then:
Multiple ascending dose (MAD) human clinical trials were conducted.
These values are 35-2000 times lower than would have anticipated if efficacy was to be achieved when the free plasma concentration reached the Ki or the ECref concentrations. […] These values are 9.4-667 times lower than expected.

Series [5] can be described thus: free fraction of drug in rat plasma.
Protocol: as §1

The structures appear in SMILES notation.

Regarding `O=C(N[C@H]1CN2CCC1CC2)c1cc2cccc(Cl)c2s1`, the half-life in “half-life in rat” is 2.77 h; in the series “half-life in dog” (0.5 mg/kg), 5.39 h; in the series “half-life in dog” (3 mg/kg), 13 h; in series [1] (human, oral, read-out: observed half-life in humans (converted)), 60 h; in series [1] (po, Human, p.o., read-out: t1/2), 50.1 to 70.1 h. For the same molecule, the “human half-life suggested by initial allometric scaling” value in series [1] (scaled from rat and dog half-life) was “about 8 hours”. Moreover, the Human fuplasma in series [2] was found to be 0.129. In series [3], this molecule yielded a Dog fuplasma of 0.107. In series [4], the “dynamic plasma range over the course of a day” value is recorded as 15-20%. The same molecule had a Rat fuplasma in series [5] of 0.112.

The record behind these values is patent publication US8815933B2 (EnVivo Pharmaceuticals, Inc., priority 2008, dated 2014).
